Earlier results as cited in patent US20060069075A1, “Methods for treating dry eye” (priority 2001, published 2006).

Test system: human conjunctival epithelial cells
Conditions: background statement, no data given

CCCCC[C@H](O)/C=C/C=C\C/C=C\C/C=C\CCCC(=O)O [15-HETE]
secretion of mucin-1 (MUC-1): increase the secretion of mucin-1 (MUC-1)
